From paper PMC12974487, “Inhibition of FicD-mediated AMPylation and deAMPylation by isoprenoid diphosphates” (Proceedings of the National Academy of Sciences of the …, 2026)
Entries after “also recorded” stand apart in the source; their conditions may differ.

Tests used:
[1] = target: AvrB (Pseudomonas savastanoi pv. glycinea, UniProt P13835); experiment: Rhamnosylation of GST-Rin4 by AvrB; assay type: biochemical, Pseudomonas syringae
Description: Finally, we explored the inhibitory effects of GPP/FPP on other Fido proteins to see if these metabolites could serve as generic inhibitors of Fido domains. To test this specificity, we performed in vitro activity assays with GPP/FPP and two constitutively active Fido proteins from bacteria: VopS from Vibrio parahaemolyticus ([25]) and AvrB from Pseudomonas syringae ([30]).
(250mM Tris pH 6.8, 10% Sodium dodecyl sulfate, 50% glycerol, 50mM DTT, 0.05% Bromophenol blue) and heated at 98°C for 5 minutes.
Rhamnosylation assays were performed as previously described (2). Briefly, AvrB and GST-Rin4 were combined in the presence of GPP or FPP, where applicable. Reactions were started by the addition of UDP-Rhamnose at a final concentration of […] and reactions were incubated for 1 hour at room temperature. Reactions were stopped by the addition of 5X SDS sample buffer […]
Equal volumes of samples suspended in 5X SDS sample buffer were resolved on hand-cast 10% 1.5mm Tris-Glycine gels with the BioRad Mini-PROTEAN Tetra Cell system. […]
Intact mass analysis of proteins was performed by the UT Southwestern Proteomics Core. Intact protein samples were analyzed by LC/MS, using a Sciex X500B QTOF mass spectrometer operating in positive ion mode, coupled to an Agilent 1290 Infinity II HPLC. […]

[2] = tested on: Glutathione S-transferase (GST); experiment: DSF specificity control with GST; assay type: binding; conditions: same concentrations as measured for FicD
Excerpt: To ensure specificity of binding to the FicD enzyme, we performed DSF with Glutathione S-transferase (GST) and BiP in the presence of the same increasing metabolite concentrations. […] Like FicD, BiP is an ATP/Mg^2+ dependent protein that could potentially leverage the same binding mode as GPP/FPP. […]
across samples. Extremely low or missing values were floored to metabolite-specific limits of detection. For each dialysis replicate, log₂-transformed abundances were computed, and log₂(fold change) was calculated as the difference between protein and metabolite chambers. Injection replicates were averaged prior to fold-change calculation. Dialysis replicates with missing chamber measurements were excluded. Technical replicates were retained for outlier detection. Metabolites dominated by noise were removed based on comparison of a null model (intercept only) versus a protein-specific model and RMSE > 0.5 across dialysis replicates. Remaining metabolites were classified as “protein signal” and retained for analysis. For each metabolite–protein pair, up to one extreme outlier was removed using a z-score cutoff of 4. Dialysis replicates were then averaged to yield a consensus fold-change per protein–metabolite pair. […]

Sequence of AvrB (P13835 whole entry, the tested form may be a part): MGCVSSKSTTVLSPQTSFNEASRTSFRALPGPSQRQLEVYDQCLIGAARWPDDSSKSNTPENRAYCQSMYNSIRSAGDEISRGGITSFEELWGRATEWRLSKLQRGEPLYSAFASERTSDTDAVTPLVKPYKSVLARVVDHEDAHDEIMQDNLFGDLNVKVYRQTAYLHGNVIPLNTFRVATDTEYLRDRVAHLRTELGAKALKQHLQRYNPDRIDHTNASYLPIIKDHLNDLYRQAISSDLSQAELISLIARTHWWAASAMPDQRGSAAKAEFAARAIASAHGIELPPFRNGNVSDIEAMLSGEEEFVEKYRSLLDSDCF

## CC(C)=CCC/C(C)=C/COP(=O)(O)OP(=O)(O)O [GPP, geranyl-pyrophosphate]
[1]
  effect on rhamnosylation activity of AvrB: Neither GPP nor FPP affected
[2]
  change in GST melt curves or Tm: Neither GPP nor FPP elicited a change

## CC(C)=CCC/C(C)=C/CC/C(C)=C/COP(=O)(O)OP(=O)(O)O [FPP, farnesyl-pyrophosphate]
[1]
  effect on rhamnosylation activity of AvrB: Neither GPP nor FPP affected; also recorded: not inhibited
[2]
  change in GST melt curves or Tm: Neither GPP nor FPP elicited a change
